Test results from PMC11997985, “Synthesis and In Vitro Profiling of Psilocin Derivatives: Improved Stability and Synthetic Properties” (Journal of Medicinal Chemistry, 2025).
Where “and” joins values, the source holds several entries; their conditions need not be identical. Equal values may be shown once. Marks after values point to notes of the source that are not given here.

Key:
[1] = Plasma stability in human plasma; type: in vitro ADME; settings: for half-life at 1 μM / remaining at 12 s, 1 μM / remaining at 5 min, 1 μM / remaining at 0.5 h, 1 μM / remaining at 1 h, 1 μM / remaining at 2 h, 1 μM / remaining at 4 h, 1 μM / remaining at 10 min, 1 μM: human, pooled human plasma; for half-life at 1 μM: 37 °C, read-out: T ½ in human plasma; for remaining at 12 s, 1 μM: 0.2 min (first sample, reference); for remaining at 0.5 h, 1 μM: 30 min; for remaining at 1 h, 1 μM: 60 min; for remaining at 2 h, 1 μM: 120 min; for remaining at 4 h, 1 μM: 240 min; for degradation in human plasma: sampling at 5 min and later
Excerpt: It should be noted that esterase-labile compounds are notoriously difficult to study in microsomal stability studies.[36]
Materials for experiments described in the supporting information (solubility) […]
Dimethylsulfoxide (DMSO) CHROMASOLV™ Plus, >99.7%
Acetonitrile (MeCN) LiChrosolv, hypergrade for LC-MS, Merck Chemicals
Formic acid (HCOOH) For LC-MS, Carlo-Erba
Water > 18MΩcm quality (Milli-Q, Millipore
Di-sodium-hydrogenphoshate dihydrate Merck
Sodium-dihydrogenphosphate monohydrate Merck
Autosampler Agilent 1260 Multisampler, G7167A
Gradient LC-pump Agilent 1260 Flexible Pump, G7104C
Analytical Flow 0.5 mL/min
Analytical column Luna® Omega 1.6 µm Polar C18 100Å, 50 x 2.1 mm
Injection volume 3.0 µL (15 µL for “high” injection of buffer sample) […]
Mobile phase A H2O/MeCN/Formic acid 95/5/0.1
Mobile phase B H2O/MeCN/Formic acid 5/95/0.1
Materials and analytical parameters for FT-ICR-MALDI-HRMS
The high-resolution mass spectrometry (HR-MS) experiments were performed using a MALDI-Fourier-transform ion cyclotron resonance (FTICR) (7T solariX XR-2ω, Bruker Daltonics) mass spectrometer equipped with a Smartbeam II 2 kHz laser. Briefly, a stock solution (1mg/ml) of the compound 5 was prepared and mixed 1:1 with a matrix solution containing DHB (40 mg/ml) in 50% ACN (0.02% TFA). 1 µl of the mixed solution was spotted onto MPTP MALDI target plate (Bruker Daltonics) and dried at room temperature. The instrument was tuned for optimal detection of small molecules (m/z 86–500) in positive polarity using the quadrature phase detection (QPD) (2ω) mode. The method was calibrated with red phosphorus over the mass range and DHB matrix ion [2M–2H2O+H]+ m/z 273.039364 was used as lock mass.
Incubation samples. 10 mM stock solutions of test compounds in DMSO were used to prepare 100 μM solutions by dilution in EtOH/water 25/75 (v/v). 6 μL of the 100 μM solution was spiked into 594 μL pre-warmed plasma at 37 °C giving a final concentration of 1 μM. The incubation tube was then mixed on a vortex. A sample (60 μL) was taken and added to an Eppendorf tube containing 180 μL acetonitrile. The tube was thoroughly mixed with a vortex. The precipitated sample was then treated with centrifugation (10.000 g, 10 minutes, 18 °C), 150 μL of the supernatant was mixed with 450 μL water directly into a LC-vial (glass). This step was repeated for every time point. The first time point was approximately taken 15-20 seconds after spiking.
Other timepoints were 5,10, 30, 60, 120, 240 minutes. Pre-precipitated samples. 594 μL of pre-warmed plasma was precipitated with 1800 μL ACN. 6 μL of the 100 μM solution was spiked into the precipitated plasma. 1 mL was removed and added to an Eppendorf tube. After a centrifugation step (10.000 g, 10 minutes, 18 °C), 150 μL of the supernatant was mixed with 450 μL water directly into a LC-vial (glass).
Metabolic stability in human microsomes
The assay was run at 37°C with a microsomal protein concentration of 0.5 mg/mL and a compound concentration of 1 μM in a 0.1 M potassium phosphate buffer at pH 7.4. The compounds were added to the microsome suspension whereafter the enzymatic reaction was initiated by the addition of the co-factor NADPH, giving a final NADPH concentration of 1 mM (Table 9). Samples […]
Plasma stability. The compounds were incubated separately at a concentration of 1 μM in +37°C pre-warmed pooled human plasma from commercial resources. The incubations were performed over a four-hour period with the first sample taken after addition of the compounds to plasma followed by a thorough mixing, with further sampling at 5, 10, and 30 minutes as well as 1,

[2] = Metabolic stability in human microsomes; type: in vitro ADME; settings: for Metabolic stability in human microsomes: 37 °C, 0.5 mg/mL protein, 1 μM compound, 1 mM NADPH; for Comment on microsome assay: Table S3
[3] = Stability in simulated stomach acid (0.10 M HCl); settings: 0.10 M HCl (simulated stomach acid)
[4] = Peak area in microsome suspension compared with compounds in solution; type: in vitro ADME, human; settings: peak area 15 seconds after addition of NADPH versus same amount (125 nM) in H2O/EtOH
Experimental: were taken at three timepoints, and the degradation was compared to determine if it was dependent on NADPH. Compound 4k […]
without the addition of NADPH. […]
microsomes that need to be activated by a co -factor.
Table S5 Percent of peak area found in microsome suspension 15 seconds after the addition of NADPH in comparison with the same amount dissolved in H2O/EtOH
No. Area at 0.25 min. in Area in solution % found in microsomes/NADPH (125 nM) microsome
Comparison with compounds in solution. A comparison was made between the peak area of the compounds in solution with that obtained in the microsome suspension directly after the addition of NADPH (about 0.25 minutes) (Table S5). Before the addition of NADPH, the compounds are equilibrated in the microsome suspension for approximately five minutes. All compounds were prepared in solution by diluting a portion of the DMSO solutions with H2O/EtOH (75:25) to 125 nM (the final concentration of compounds for analysis in the microsome assay).
For the compounds where no results from the microsome assay could be reported due to low peak area (4d, 4e, 4f & 5), less than one percent of the expected peak area as compared with the area in solution was detected. […]
degrade rapidly before the addition of the co-factor after five minutes in incubation. For compounds 4g, 4h, 4i & 4j, which were […]
higher relative peak areas were found. […]
without NADPH was only found at 15% of the area seen in solution in the microsome suspension.

porcine liver esterase = assay: Stability in FaSSIF supplemented with esterase; settings: for % prodrug remaining, measured after 1 min: after 1 min at 20 IU/mL; for % prodrug remaining, no esterase 30 min: after 30 min with no esterase; for predicted half-life: at 270 IU/mL; for predicted abs.: calculated remaining prodrug available for GI absorption, predicted level after 5 min at 270 IU/mL (% remaining prodrug); for half-life at 0.292 mM: pig, FaSSIF supplemented with porcine liver esterase (20 IU/mL)

SMILES	half-life at 1 μM [1]	remaining at 12 s, 1 μM [1]	remaining at 5 min, 1 μM [1]	remaining at 0.5 h, 1 μM [1]	remaining at 1 h, 1 μM [1]	remaining at 2 h, 1 μM [1]	remaining at 4 h, 1 μM [1]	degradation in human plasma [1]	Metabolic stability in human microsomes [2]	half-life at 5 mM [3]	% found in microsome suspension [4]	% prodrug remaining, measured after 1 min (porcine liver esterase)	% prodrug remaining, no esterase 30 min (porcine liver esterase)	predicted half-life (porcine liver esterase)	predicted abs. (porcine liver esterase)	half-life at 0.292 mM (porcine liver esterase)	remaining at 10 min, 1 μM [1]	Comment on microsome assay [2]
CN(C)CCc1c[nH]c2cccc(OP(=O)(O)O)c12 [Compound 8, 4-phosphoryloxy-N,N-dimethyltryptamine, reference compound]	> 480 min	100%	135%	130%	122%	127%	122%	no degradation was observed	<10/<10^b μL/min/mg protein and <10 μL/min/mg protein	> 167 h	81.5%	–	–	–	–	–	–	–
CCOC(=O)Oc1cccc2[nH]cc(CCN(C)C)c12.O=C(O)/C=C/C(=O)O [Compound 4i]	< 5 min	100%	0%	0%	0%	0%	0%	almost no compound remained	>200^a μL/min/mg protein and >200 μL/min/mg protein	> 167 h	7.1%	28%	100%	0.04 min	2.6 × 10^–35	0.56 ± 0.12 min	0%	Rapid degradation
CC(=O)Oc1cccc2[nH]cc(CCN(C)C)c12.O=C(O)/C=C/C(=O)O [Compound 4a, 4-acetoxy-N,N-dimethyltryptamine]	< 5 min	100%	0.2%	0.2%	0.2%	0.1%	0.2%	almost no compound remained	>200^a μL/min/mg protein and >200 μL/min/mg protein	> 167 h	0.0%	47%	–	0.07 min	6.2 × 10^–21	0.91 ± 0.1 min	0.2%	Rapid degradation
CN(C)CCc1c[nH]c2cccc(OC(=O)C3CC3)c12.O=C(O)/C=C/C(=O)O [Compound 4g]	< 5 min	100%	1.5%	0%	0%	0%	0%	almost no compound remained	>200^a μL/min/mg protein and >200 μL/min/mg protein	> 167 h	58%	57%	100%	0.09 min	1.9 × 10^–15	1.22 ± 0.04 min	0.1%	Rapid degradation
CN(C)CCc1c[nH]c2cccc(OCc3ccccc3)c12 [Compound 3, 4-Benzyloxy-N,N-dimethyltryptamine]	> 480 min	100%	103%	105%	111%	110%	107%	no degradation was observed	43 μL/min/mg protein and 44 μL/min/mg protein	> 167 h	88.5%	–	–	–	–	–	103%	–
